# Experimental data from patent US20240418723A1, “SEQUENTIAL TREATMENTS AND BIOMARKERS TO REVERSE RESISTANCE TO KINASE INHIBITORS” (Queen Mary University of London, priority 2021, published 2024).
# Experiments:
# P31/Fuj cells [1] = experiment: Subcellular (cytosolic and nuclear/organelle) proteomics of LSD1i-treated P31/Fuj cells; assay type: cell-based
# Protocol: Isolation of nuclear/organelle and cytosolic fractions for proteomic analysis was carried out as described below.
# The isolation of cytosolic and nuclear/organelle proteins was performed as follows. Cells (10×10^6 cells per replicate) were resuspended in 1 mL hypotonic lysis buffer (containing 10 mM Tris-HCl pH 8.0, 1 mM KCl, 1.5 mM MgCl2, 1 mM DTT, 1 mM Na3VO4 and 1 mM NaF) and incubated at 4° C. for 30 minutes on a rotator. Nuclei/organelles were then pelleted (10,000×g, 10 min, 4° C.), after which the supernatant (cytosolic fraction) was transferred to fresh tubes. The nuclear/organelle fraction was further processed for proteomic analysis by adding 8M urea buffer as indicated above.
# Proteins in the supernatant were isolated by methanol/chloroform precipitation as follows. Methanol was added to the protein solution (at 4×initial volume), followed by chloroform (1×initial volume) and ddH2O (3×initial volume), vortexing after each addition. Samples were centrifuged for 2 min, 12,000×g, 4° C., and the top aqueous layer was removed. Additional methanol was added (4×initial volume) and samples vortexed. Samples were centrifuged for 3 min, 12,000×g, 4° C., and the supernatant removed. Protein pellets were dried briefly at RT, then resuspended in 8M urea buffer. Homogenisation, cysteine alkylation and tryptic digestion of the nuclear and cytosolic fractions were carried out as described above. Desalting was performed through C18 spin columns (Glygen Corporation, Cat. TT2C18) following the manufacturer's indications. Briefly, columns were equilibrated twice with 200 μL 70% ACN, and washed twice with 200 μL 1% ACN. Peptide samples were loaded onto the columns, then washed twice with 200 μL 1% ACN, with spinning. […] Columns were spun for 2 min at 1,500×g, 4° C. each time they were loaded.
# P31/Fuj cells [2] = experiment: Phosphoproteomics (LC-MS/MS) and kinase network analysis of treated P31/Fuj cells
# Protocol: To study ATRA effect over the phosphoproteome, P31/Fuj cells (10×10^6 cells at 0.5×10^6 cell/mL) were seeded in T75 flask and treated with either Et-OH, 1 μM ATRA or 10 μM ATRA for 5 days. […] For both experiments, cells were collected by centrifugation (1500 rpm for 5 min at 5° C.), then cell pellets were washed twice with ice cold PBS supplemented with phosphatase inhibitors (1 mM Na3VO4, 1 mM NaF) and stored at −80° C. Pellets were processed for phosphoproteomics analysis as indicated below.
# In brief, cell pellets were lysed in 300 μL of urea buffer (8 M urea in 20 mM HEPES, pH 8.0, supplemented with 1 mM Na3VO4, 1 mM NaF, 1 mM Na4P2O7 and 1 mM P-glycerophosphate). Lysates were further homogenized by sonication (30 cycles of 30 s on 30 s off; Diagenode Bioruptor® Plus) and insoluble material was removed by centrifugation. Protein was quantified using BCA (Thermo Fisher Scientific). Then, 500 μg of protein were subjected to cysteine alkylation using sequential incubation with 10 mM dithiothreitol (DDT) and 16.6 mM iodoacetamide (IAM) for 1 h and 30 min, respectively, at 25° C. with agitation. Trypsin beads (50% slurry of TLCK-trypsin; Thermo Fisher Scientific; Cat. #20230) were equilibrated with 3 washes with 20 mM HEPES (pH 8.0), the urea concentration in the protein suspensions was reduced to 2 M by the addition of 20 mM HEPES (pH 8.0), 100 μL of equilibrated trypsin beads were added and the samples were incubated overnight at 37° C. Trypsin beads were removed by centrifugation (2000×g at 5° C. for 5 min) and the resulting peptide solutions were desalted through Oasis HLB cartridges (Waters) following the manufacturer's indications. Briefly, cartridges were set in a vacuum manifold device and the pressure was adjusted to 5 mmHg. Then, cartridges were conditioned with 1 mL acetonitrile (ACN) and equilibrated with 2.5 mL of wash solution (0.1% trifluoroacetic acid (TFA), 2% ACN). Peptides were loaded in the cartridges and washed with 1 mL of wash solution. Finally, peptides were eluted with 500 μL of glycolic acid buffer 1 (1 M glycolic acid, 5% TFA, 50% ACN). Enrichment of phosphorylated peptides was performed with TiO2 Beads (GL Sciences). The eluents were normalized to 1 mL with glycolic acid buffer 2 (1 M glycolic acid, 5% TFA, 80% ACN) and incubated with 50 μl of TiO2 buffer (50% slurry in 1% TFA) for 5 min at room temperature. TiO2 beads were packed by centrifugation into empty spin columns (Glygen Corporation; Cat. TT2EMT) previously washed with ACN. TiO2 beads were sequentially washed by centrifugation (1500×g for 3 min) with 100 μL of glycolic acid buffer 2, ammonium acetate solution (100 mM ammonium acetate in 25% ACN) and twice with neutral solution (10% ACN). For phosphopeptide elution, spin tips were transferred to fresh tubes, 50 μL of elution solution (5% NH4OH, 7.5% ACN) were added and tips were centrifuged at 1500×g for 3 min. The elution step was repeated a total of 4 times. Finally, samples were snap frozen, dried in a SpeedVac and phosphopeptide pellets were stored at −80° C.
# acute myeloid leukemia = conditions: Smitheman et al. (2019); cited from earlier work
# primary AML cells = experiment: Ex-vivo sequential treatment of primary AML blasts co-cultured on MS-5 stromal feeder layer, Guava ViaCount, CDI; assay type: cell-based, human
# Protocol: We then examined whether, besides cell lines, LSD1i could also sensitise primary AML to kinase inhibitor treatment. We obtained CDI values from 17 AML blasts samples (6 normal, 5 complex and 6 MLL karyotypes) treated for 5 days with LSD1i followed by 3 days with either MEKi, PKC/FLT3i or DMSO control (FIGS. 2, H and I). Primary AML cells were cultured and treated in the presence of a feeder layer of bone marrow stromal cells, which, under control conditions, kept cells viable and proliferating throughout the course of the experiment.
# Umbilical cord bloods were purchased from Anthony Nolan. Mononuclear cells (MNCs) were isolated by Ficoll prior red blood cells (RBC) lysis buffer (BioLegend, catalog #420301). Cells were then stained with CD34 immunomagnetic positive selection kit (EasySep™ Human CD34 Positive Selection Kit II, StemCell technologies, catalog #17856, according to manufacturer instructions). Purity of CD34^+ cells isolated from MNCs was assessed by flow cytometry prior to long term storage in liquid nitrogen. For AML samples, patients gave informed consent for the storage and use of their blood cells for research purposes. Experiments were performed in accordance with the Local Research Ethics Committee, as previously described. Mononuclear cells from peripheral blood or bone marrow biopsies were isolated in the BCI tissue bank facility and stored in liquid nitrogen.
# Cell vials were thawed in 37° C. water bath and contents transferred to 15 mL Falcon tubes containing 4 mL of pre-warmed FBS with 40 ng/mL DNase (Sigma Aldrich D4513-1VL). Suspension was centrifuged at 300×g for 8 minutes, then supernatant was removed and cells resuspended in MyeloCult H5100 medium (Stemcell Technologies #05150) containing 1% P/S and supplemented with human IL-3 (Peprotech #200-03), human G-CSF (Peprotech #300-23) and human TPO (#300-18), each to a final concentration of 20 ng/mL. […]
# [3] = 0.5 μM LSD1i 5 days versus control (FIG. 21A)
# [4] = 0.5 μM LSD1i 5 days versus control (FIG. 21B)
# [5] = LSD1i, pathway analysis of proteomics data (FIG. 21 C, D)
# [6] = LSD1i by itself, 2.5 z-score threshold (FIG. 6C)
# [7] = LSD1i relative to control (FIGS. 6 C, D, 18B)
# [8] = LSD1i treatment, P31/Fuj (FIG. 19A)
smiles,measurement,setting,value
O=C(O)c1ccc(CN2CCC(CN[C@@H]3C[C@H]3c3ccccc3)CC2)cc1 [GSK2879552],number of proteins decreasing in cytosolic fraction,P31/Fuj cells [1]; [3],379
same,number of proteins increased in cytosolic fraction,P31/Fuj cells [1]; [3],101
same,number of proteins decreasing in nuclear/organelle fraction,P31/Fuj cells [1]; [4],334
same,number of proteins increased in nuclear/organelle fraction,P31/Fuj cells [1]; [4],293
same,"expression of MAPK pathway enzymes including NRAS, KRAS, MEK1 and P90-S6K (RPS6KA1 isoform)","P31/Fuj cells [1]; LSD1i 5 days (FIG. 7B, 22A)",increase
same,"expression of PI3K p110δ catalytic isoform, AKT2, and RAC1","P31/Fuj cells [1]; LSD1i 5 days (FIG. 7B, 22A)",decrease
same,"proteins involved in the PI3K, insulin and c-MYC signaling pathways",P31/Fuj cells [1]; [5],decrease
same,α and β-integrin signaling proteins,P31/Fuj cells [1]; [5],increase
same,phosphorylation sites affected by kinase inhibitors after LSD1i pre-treatment versus vehicle,"P31/Fuj cells [2]; 0.5 μM LSD1i 5 days, then 1 μM kinase inhibitor 1 h, P31/Fuj (FIG. 6B)",fewer phosphorylation sites
same,c-Myc phosphorylation at S62,"P31/Fuj cells [2]; LSD1i 5 days, P31/Fuj (FIG. 6F)",reduced
same,kinase activities (node centrality),P31/Fuj cells [2]; LSD1i by itself relative to control (FIG. 6D),decreased more kinase activities than it increased
same,number of network axes with decreased enrichment,P31/Fuj cells [2]; [6],18
same,number of network axes with increased enrichment,P31/Fuj cells [2]; [6],6
same,"effect of PI3K, AKT, MEK and ERK inhibitors in increasing phosphorylation of epigenetic regulators and histones, CDKs, cyclins and DNA repair proteins","P31/Fuj cells [2]; LSD1i pre-treatment (FIG. 6H, 19 D, E)",blunted
same,circuitries containing AKT and MTOR,P31/Fuj cells [2]; [7],decrease
same,circuitries with PKCI and MEK1 (MAP2K1),P31/Fuj cells [2]; [7],increased
same,AHNAK pS5110 phosphorylation,P31/Fuj cells [2]; [8],increased
same,"PI3K/AKT pathway markers GSK3B pS13 and RPS6 p236, and MAPK pathway marker MAPK3 (ERK1) pT202",P31/Fuj cells [2]; [8],decreased
same,kinase inhibitor-induced increase in phosphorylation of LSD1/KDM1A at T95 and S93,"P31/Fuj cells [2]; control cells versus LSD1i pre-treated cells (FIG. 6G, 19A)",not in cells pre-treated with LSD1i
same,differentiation and cytotoxic response in combination with all-trans retinoic acid (ATRA),acute myeloid leukemia,enhances differentiation and promotes cytotoxic response
same,number of primary AML cases primed for MEKi treatment,"primary AML cells; LSD1i 5 days then MEKi 3 days, of the 17 primary AML cases (FIG. 2H)",8
same,number of primary AML cases primed for PKC/FLT3i treatment,"primary AML cells; LSD1i 5 days then PKC/FLT3i (midostaurin) 3 days, out of the 14 tested (FIG. 2I)",5
same,proportion of AML cases in which LSD1i->MEKi sequential treatment may be particularly effective,"primary AML cells; LSD1i->MEKi sequential treatment, primary AML",about 50%
